Read-outs that look alike come from different tables or passages of the source.
Test system: hypoxia-inducible endogenous VEGF expression
Assay: Hypoxia-inducible endogenous VEGF expression ELISA in HeLa cells, dose-response EC50 (Table 3)
Type: cell-based, human
Protocol: The ability of the Compounds to modulate hypoxia-inducible endogenous VEGF expression may be analyzed as follows. VEGF protein levels may be monitored by an ELISA assay (R&D Systems). Briefly, HeLa cells may be cultured for 24-48 hours under hypoxic conditions (1% O2, 5% CO2, balanced with nitrogen) in the presence or absence of a Compound. The conditioned media may then be assayed by ELISA, and the concentration of VEGF calculated from the standard ELISA curve of each assay.
A dose-response analysis may be performed using the ELISA assay and conditions described above. The conditions for the dose-response ELISA are analogous to those described above. A series of, e.g., seven different concentrations may be analyzed. In parallel, a dose-response cytotoxicity assay may be performed using Cell Titer Glo (Promega) under the same conditions as the ELISA to ensure that the inhibition of VEGF expression was not due to the cytotoxicity.

[1] = Homo sapiens, HeLa, read-out: ELISA EC50 μM
[2] = Homo sapiens, HeLa cells, hypoxic conditions (1% O2), 24-48 hours, VEGF in conditioned media, read-out: ELISA EC50
[3] = HeLa cells, hypoxic conditions (1% O2), 24-48 hours, VEGF in conditioned media, read-out: ELISA EC50

Row | Structure (SMILES) | EC50 [2] | also measured
1 | Cc1ccc(OC(=O)N2CCc3c([nH]c4ccc(Cl)cc34)C2c2ccc(OCCCN(C)C)cc2)cc1 (centres unmarked) [Compound 502] | – | EC50 [1]: 0.04 to 0.2 µM
2 | O=C(O)c1ccc(C2c3[nH]c4ccc(Br)cc4c3CCN2C(=O)Oc2ccc(Cl)cc2)cc1 (centres unmarked) [Compound 519] | 0.2 to 1 µM | –
3 | O=C1NC2CSC(CCCCC(=O)OCCOc3ccc(C4c5[nH]c6ccc(Cl)cc6c5CCN4C(=O)Oc4ccc(Cl)cc4)cc3)C2N1 (centres unmarked) [Compound 544] | – | EC50 [1]: < 0.008 µM
4 | O=C(Oc1ccc(Cl)cc1)N1CCc2c([nH]c3ccc(Br)cc23)C1c1ccc(C(F)(F)F)cc1 (centres unmarked) [Compound 570] | – | EC50 [3]: < 0.008 µM
5 | O=C(Oc1ccc(Cl)cc1)N1CCc2c([nH]c3ccc(Cl)cc23)C1c1ccc(OCCO)cc1 (centres unmarked) [Compound 571] | 0.2 to 1 µM | –
6 | CC(C)c1ccc(C2c3[nH]c4ccc(Br)cc4c3CCN2C(=O)Oc2ccc(Cl)cc2)cc1 (centres unmarked) [Compound 572] | – | EC50 [3]: < 0.008 µM
7 | O=C(Oc1ccc(F)cc1)N1CCc2c([nH]c3ccc(Cl)cc23)C1c1ccc(O)cc1 (centres unmarked) [Compound 575] | 0.2 to 1 µM | –
8 | O=C(Oc1ccc(F)cc1)Oc1ccc(C2c3[nH]c4ccc(Cl)cc4c3CCN2C(=O)Oc2ccc(F)cc2)cc1 (centres unmarked) [Compound 576] | 0.04 to 0.2 µM | –
9 | O=C(Oc1ccc(Cl)cc1)N1CCc2c([nH]c3ccc(Cl)cc23)C1c1ccc(O)cc1 (centres unmarked) [Compound 577] | 0.04 to 0.2 µM | –
10 | COC(=O)c1ccc(C2c3[nH]c4ccc(Cl)cc4c3CCN2C(=O)Oc2ccc(F)cc2)cc1 (centres unmarked) [Compound 579] | – | EC50 [3]: < 0.008 µM
11 | COC(=O)c1ccc(C2c3[nH]c4ccc(Cl)cc4c3CCN2C(=O)Oc2ccc(Cl)cc2)cc1 (centres unmarked) [Compound 580] | < 0.008 µM | –
12 | O=C(O)c1ccc(C2c3[nH]c4ccc(Cl)cc4c3CCN2C(=O)Oc2ccc(F)cc2)cc1 (centres unmarked) [Compound 581] | > 1 µM | –
13 | COc1ccc(C2c3[nH]c4ccc(Cl)cc4c3CCN2C(=O)Oc2ccccc2Cl)cc1 (centres unmarked) [Compound 587] | 0.04 to 0.2 µM | –
14 | O=C(Oc1ccccc1Cl)N1CCc2c([nH]c3ccc(Cl)cc23)C1c1ccc(F)cc1 (centres unmarked) [Compound 588] | 0.04 to 0.2 µM | –
15 | O=C(Oc1ccccc1Cl)N1CCc2c([nH]c3ccc(Cl)cc23)C1c1ccc(Cl)cc1 (centres unmarked) [Compound 589] | 0.04 to 0.2 µM | –
16 | COC(=O)c1ccc(C2c3[nH]c4ccc(Cl)cc4c3CCN2C(=O)Oc2ccccc2Cl)cc1 (centres unmarked) [Compound 590] | 0.008 to 0.04 µM | –
17 | COC(=O)c1ccc(C2c3[nH]c4ccc(Br)cc4c3CCN2C(=O)Oc2ccc(Cl)cc2)cc1 (centres unmarked) [Compound 591] | < 0.008 µM | –
18 | COC(=O)c1ccc(C2c3[nH]c4ccc(Br)cc4c3CCN2C(=O)Oc2ccc(F)cc2)cc1 (centres unmarked) [Compound 592] | < 0.008 µM | –
19 | COC(=O)c1ccc(C2c3[nH]c4ccc(Br)cc4c3CCN2C(=O)Oc2ccccc2Cl)cc1 (centres unmarked) [Compound 593] | 0.008 to 0.04 µM | –
20 | O=C(Oc1ccccc1Cl)N1CCc2c([nH]c3ccc(Cl)cc23)C1c1ccc(C(F)(F)F)cc1 (centres unmarked) [Compound 594] | 0.04 to 0.2 µM | –
21 | COc1ccc(C2c3[nH]c4ccc(OC)cc4c3CCN2C(=O)Oc2ccc(Cl)cc2)cc1 (centres unmarked) [Compound 614] | 0.2 to 1 µM | –
22 | COc1ccc(C2c3[nH]c4ccc(OCc5ccccc5)cc4c3CCN2C(=O)Oc2ccc(Cl)cc2)cc1 (centres unmarked) [Compound 616] | 0.2 to 1 µM | –
23 | O=C(Oc1ccc(Cl)cc1)N1CCc2c([nH]c3ccc(Cl)cc23)C1c1ccc(OCCCI)cc1 (centres unmarked) [Compound 617] | 0.008 to 0.04 µM | –
24 | O=C(Oc1ccccc1)N1CCc2c([nH]c3ccc(Cl)cc23)C1c1ccc(OCC(O)CO)cc1 (centres unmarked) [Compound 626] | 0.008 to 0.04 µM | –
25 | O=C(Oc1ccc(F)cc1)N1CCc2c([nH]c3ccc(Cl)cc23)C1c1ccc(OCC(O)CO)cc1 (centres unmarked) [Compound 627] | < 0.008 µM | –
26 | O=C(Oc1ccccc1Cl)N1CCc2c([nH]c3ccc(Cl)cc23)C1c1ccc(OCC(O)CO)cc1 (centres unmarked) [Compound 628] | 0.04 to 0.2 µM | –
27 | O=C(Oc1ccc(Cl)cc1)N1CCc2c([nH]c3ccc(Cl)cc23)C1c1ccc(OCC(O)CO)cc1 (centres unmarked) [Compound 629] | < 0.008 µM | –
28 | O=C(Oc1ccc(Br)cc1)N1CCc2c([nH]c3ccc(Cl)cc23)C1c1ccc(OCC(O)CO)cc1 (centres unmarked) [Compound 630] | < 0.008 µM | –
29 | Cc1ccc(OC(=O)N2CCc3c([nH]c4ccc(Cl)cc34)C2c2ccc(OCC(O)CO)cc2)cc1 (centres unmarked) [Compound 631] | < 0.008 µM | –

From patent publication US20120157401A1, “METHODS FOR TREATING NEUROFIBROMATOSIS” (PTC Therapeutics, Inc., priority 2009, published 2012)
